Measurements as given in patent US20230312476A1, “COMPOUNDS WITH SEMIOCHEMICAL PROPERTIES AND BIOSENSORS” (ROTHAMSTED RESEARCH LIMITED, priority 2020, published 2023).
Like-named read-outs stand apart in the source and are kept apart here.

Key:
OBP6 [1] = target: T1, OBP6 (Acyrthosiphon pisum, UniProt A0A8R1TDN2); assay: 1-NPN fluorescence competitive binding assay, OBP6
Description: (§1) All fluorescent measurements were undertaken using a Perkin-Elmer LS50B fluorescence spectrophotometer, using a 2 mL quartz cuvette, and the settings described below in Table 13, unless otherwise stated. Spectra were recorded using FL WinLab software.
(§2) Saturation of OBPs with fluorescent probe and 1-NPN (Sigma-Aldrich) was initially measured by titrating a 2 μM protein sample (2 mL in 25 mM Tris-HCl) with aliquots of 1 mM ligand (Sigma-Aldrich) in methanol to final concentrations of 1-16 μM. The fluorescence intensity at […] was recorded.
(§3) The competitive binding of ligands was measured by observing the intrinsic fluorescence of tryptophan. Titrations were performed with aliquots of 1 mM ligand in methanol to final concentrations of 1-20 μM, either after the addition of fluorescent probe to a final concentration of 1 μM or in the absence of fluorescent probe.
(§4) To generate KD values, relative fluorescence intensity was plotted against the concentration of ligand as a binding curve. KD values were generated in GraphPad Prism 7 using a non-linear regression and the inbuilt equation: […]

OBP6 [2] = target: T1, OBP6; assay: Fluorescent probe-free (intrinsic tryptophan fluorescence) binding assay, OBP6
Description: as §1, §3, §4

OBP9 = OBP9 (Acyrthosiphon pisum, UniProt A0A8R1TD77); assay: 1-NPN fluorescence competitive binding assay, OBP9
Sequence of OBP9 (A0A8R1TD77 1-165): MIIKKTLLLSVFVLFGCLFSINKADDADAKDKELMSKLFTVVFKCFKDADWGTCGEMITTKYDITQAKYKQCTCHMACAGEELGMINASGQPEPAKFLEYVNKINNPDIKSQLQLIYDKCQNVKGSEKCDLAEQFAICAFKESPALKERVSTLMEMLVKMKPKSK
Description: as §1, §2, §3, §4

[3] = OBP6, absence of fluorescent probe, non-linear regression, ± error, read-out: OBP6 Fluorescent Probe-Free Assay KD
[4] = OBP9 with 1-NPN fluorescent probe, non-linear regression, ± error, read-out: OBP9 1-NPN Assay KD
[5] = OBP6 with 1-NPN fluorescent probe, non-linear regression, ± error, read-out: OBP6 1-NPN Assay KD

T1 sequence (A0A8R1TDN2 1-160): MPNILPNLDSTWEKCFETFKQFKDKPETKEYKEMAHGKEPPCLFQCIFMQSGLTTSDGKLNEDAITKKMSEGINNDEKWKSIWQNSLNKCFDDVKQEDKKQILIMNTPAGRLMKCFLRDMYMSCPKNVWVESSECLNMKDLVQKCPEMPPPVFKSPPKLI

Row | Kd (OBP6 [2]; [3]) [µM] | Kd (OBP6 [1]; [5]) [µM] | Structure (SMILES) | Kd (OBP6 [1]) [µM] | Kd (OBP9; [4]) [µM] | Kd (OBP6 [2]) [µM] | Kd (OBP9) [µM]
1 | – | – | C=CC(C)(O)CCC=C(C)C (racemic) [(R/S)-linalool] | 8.95 ± 3.71 | – | – | –
2 | 34.5 ± 10.9 | 10.1 ± 2.88 | C=CC(=C)CC/C=C(\C)CCC=C(C)C [(E)-β-farnesene] | – | 8.32 ± 2.67 | – | –
3 | 12.7 ± 2.31 | 2.62 ± 0.63 | CC1=CO[C@@H](O)[C@H]2[C@@H]1CC[C@@H]2C [Compound A, (1R,4aS,7S,7aR)-4,7-dimethyl-1,4a,5,6,7,7a-hexahydrocyclopenta[c]pyran-1-ol] | – | 5.74 ± 1.71 | – | –
4 | 1.9 ± 0.35 | 1.3 ± 0.6 | CC1=COC(=O)[C@H]2[C@@H]1CC[C@@H]2C [Compound B, (4aS,7S,7aR)-4,7-dimethyl-5,6,7,7a-tetrahydrocyclopenta[c]pyran-1(4aH)-one] | – | 6.49 ± 1.58 | – | –
5 | 8.46 ± 1.62 | 2.65 ± 0.8 | CC1=CO[C@H](O)[C@H]2[C@H](C)CC[C@@H]12 [Compound C, (1S,4aR,7R,7aS)-4,7-dimethyl-1,4a,5,6,7,7a-hexahydrocyclopenta[c]pyran-1-ol] | – | 6.29 ± 1.99 | – | –
6 | – | – | CC1=COC(=O)[C@H]2[C@H](C)CC[C@@H]12 [Compound D, (4aR,7R,7aS)-4,7-dimethyl-5,6,7,7a-tetrahydrocyclopenta[c]pyran-1(4aH)-one] | 4.37 ± 0.81 | – | 12 ± 4.24 | 9.68 ± 4.57
